# Laboratory results reported in ChEMBL document CHEMBL1201862, “PubChem BioAssay data set” (2004).
# The source made the active and inactive calls.
# Experiments:
# Escherichia coli = experiment: microbe, parasite or virus in culture
# [1] = Luminescence Cell-Based Dose Retest to Confirm Inhibitors of Cancer Stem Cells. [Related pubchem assays (depositor defined):AID2717, AID2721]; type: functional; conditions: Homo sapiens
# [2] = A Cell Based Secondary Assay To Explore Cytotoxicity of Compounds that Sensitize Mycobacterium Tuberculosis to Beta-Lactam Antibiotics.; type: functional
# [3] = target: Dual specificity protein kinase CLK1 (Homo sapiens, UniProt P49759); experiment: inhibition of human CLK1 activity – biochemical, cherry-picked samples, selectivity assay for Dyrk1A inhibitor project, dose response (AID 588811)
# [4] = target: T1, Rac GTPase-activating protein 1 (Homo sapiens, UniProt Q9H0H5); experiment: blockers of MgcRacGAP-driven Rac1 GTP hydrolysis – biochemical, ADP Hunter fluorescence, primary and confirmatory, confirmation (AID 624330); type: functional
# T1 sequence (Q9H0H5 whole entry): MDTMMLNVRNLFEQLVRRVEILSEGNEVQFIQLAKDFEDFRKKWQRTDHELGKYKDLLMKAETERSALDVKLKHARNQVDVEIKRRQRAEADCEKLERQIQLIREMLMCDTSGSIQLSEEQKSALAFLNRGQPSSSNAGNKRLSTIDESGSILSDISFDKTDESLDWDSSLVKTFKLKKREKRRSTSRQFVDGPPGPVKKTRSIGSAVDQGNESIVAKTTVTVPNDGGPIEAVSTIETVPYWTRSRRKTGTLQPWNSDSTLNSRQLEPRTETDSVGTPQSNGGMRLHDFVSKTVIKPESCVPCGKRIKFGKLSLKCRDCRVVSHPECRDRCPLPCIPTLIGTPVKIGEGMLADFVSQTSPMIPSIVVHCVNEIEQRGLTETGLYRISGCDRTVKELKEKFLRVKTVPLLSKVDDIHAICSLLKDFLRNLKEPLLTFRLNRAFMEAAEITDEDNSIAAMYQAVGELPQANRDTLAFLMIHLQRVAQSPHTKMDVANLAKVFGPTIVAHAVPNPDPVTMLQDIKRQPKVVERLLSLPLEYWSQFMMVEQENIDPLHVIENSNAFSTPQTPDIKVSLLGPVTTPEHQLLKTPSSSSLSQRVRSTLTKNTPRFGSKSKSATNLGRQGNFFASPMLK
# [5] = target: Glucose-6-phosphate 1-dehydrogenase (Homo sapiens, UniProt P11413); experiment: inhibition of Homo sapiens G6PD, dose series – biochemical, fluorescence, selectivity assay for P. falciparum G6PD inhibitor project, dose response (AID 504792); type: functional
# [6] = viability loss in HeLa cells – cytotoxicity control for MgcRacGAP inhibitor project, dose response (AID 624300); type: functional
# [7] = target: T2, Microphthalmia-associated transcription factor (Homo sapiens, UniProt O75030); experiment: reducers of TRPM1 reporter luminescence, concentration series – cell-based, SK-MEL-5, cherry-picked, set 3, MITF inhibitor project, dose response (AID 493073); type: functional;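 note: SK-MEL-5 melanoma cells with luciferase driven by the MITF target TRPM1 promoter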
# T2 sequence (O75030 whole entry): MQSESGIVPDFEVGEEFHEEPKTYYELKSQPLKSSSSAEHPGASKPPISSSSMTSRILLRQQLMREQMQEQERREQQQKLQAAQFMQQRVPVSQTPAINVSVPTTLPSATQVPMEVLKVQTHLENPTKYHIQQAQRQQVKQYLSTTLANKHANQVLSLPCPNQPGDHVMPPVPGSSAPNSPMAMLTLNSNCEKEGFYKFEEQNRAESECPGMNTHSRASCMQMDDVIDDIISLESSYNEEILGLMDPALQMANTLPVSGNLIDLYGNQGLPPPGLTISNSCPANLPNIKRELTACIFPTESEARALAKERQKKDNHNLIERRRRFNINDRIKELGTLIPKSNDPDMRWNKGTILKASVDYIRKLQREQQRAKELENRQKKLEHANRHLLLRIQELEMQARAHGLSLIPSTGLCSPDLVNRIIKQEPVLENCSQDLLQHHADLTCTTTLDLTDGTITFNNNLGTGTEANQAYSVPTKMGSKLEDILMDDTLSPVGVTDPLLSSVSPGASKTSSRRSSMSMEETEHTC
# [8] = HEK-293T viability loss, compound-treated – cell-based, uHTS hits, cytotoxicity control for B/T-cell NF-kB inhibitor project, dose response (AID 489019); type: functional;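 note: IC50 reflects cytotoxicity as loss of cell viability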
# Jurkat = experiment: blockers of NF-kB activation in T cells – Jurkat, luciferase reporter, luminescence, B- and T-cell, dose response (AID 489004); type: functional, cell-based; conditions: Homo sapiens;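 note: NF-kB luciferase reporter Jurkat cells stimulated with PMA plus ionomycin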
# Hexokinase HKDC1 = Hexokinase HKDC1 (Homo sapiens, UniProt Q2TB90); experiment: SAR analysis of small molecule inhibitors of hexokinase domain containing I (HKDC1). [Related pubchem assays (depositor defined):AID493160, AID493190]; type: functional
# Hexokinase-1 = Hexokinase-1 (Homo sapiens, UniProt P19367); experiment: SAR analysis of small molecule inhibitors of hexokinase domain containing I (HKDC1) in the hexokinase 1 selectivity assay. [Related pubchem assays (depositor defined):AID493160, AID493190]; type: functional
# [9] = target: T3, Sentrin-specific protease 8 (Homo sapiens, UniProt Q96LD8); experiment: inhibition of sentrin protease 8 – biochemical, luminescence, set 2, SAR follow-up (AID 588601); type: functional
# T3 sequence (Q96LD8 whole entry): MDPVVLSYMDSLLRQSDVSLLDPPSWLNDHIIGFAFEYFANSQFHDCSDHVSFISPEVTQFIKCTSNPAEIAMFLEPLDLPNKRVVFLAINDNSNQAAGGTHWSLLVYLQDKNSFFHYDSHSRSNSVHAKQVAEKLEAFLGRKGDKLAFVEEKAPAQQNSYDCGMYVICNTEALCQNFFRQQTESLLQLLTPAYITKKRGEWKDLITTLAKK
# [10] = target: T4, Sentrin-specific protease 6 (Homo sapiens, UniProt Q9GZR1); experiment: inhibition of human SENP6 catalytic domain – biochemical, luminescence, set 2, SAR follow-up (AID 588598); type: functional
# T4 sequence (Q9GZR1 whole entry): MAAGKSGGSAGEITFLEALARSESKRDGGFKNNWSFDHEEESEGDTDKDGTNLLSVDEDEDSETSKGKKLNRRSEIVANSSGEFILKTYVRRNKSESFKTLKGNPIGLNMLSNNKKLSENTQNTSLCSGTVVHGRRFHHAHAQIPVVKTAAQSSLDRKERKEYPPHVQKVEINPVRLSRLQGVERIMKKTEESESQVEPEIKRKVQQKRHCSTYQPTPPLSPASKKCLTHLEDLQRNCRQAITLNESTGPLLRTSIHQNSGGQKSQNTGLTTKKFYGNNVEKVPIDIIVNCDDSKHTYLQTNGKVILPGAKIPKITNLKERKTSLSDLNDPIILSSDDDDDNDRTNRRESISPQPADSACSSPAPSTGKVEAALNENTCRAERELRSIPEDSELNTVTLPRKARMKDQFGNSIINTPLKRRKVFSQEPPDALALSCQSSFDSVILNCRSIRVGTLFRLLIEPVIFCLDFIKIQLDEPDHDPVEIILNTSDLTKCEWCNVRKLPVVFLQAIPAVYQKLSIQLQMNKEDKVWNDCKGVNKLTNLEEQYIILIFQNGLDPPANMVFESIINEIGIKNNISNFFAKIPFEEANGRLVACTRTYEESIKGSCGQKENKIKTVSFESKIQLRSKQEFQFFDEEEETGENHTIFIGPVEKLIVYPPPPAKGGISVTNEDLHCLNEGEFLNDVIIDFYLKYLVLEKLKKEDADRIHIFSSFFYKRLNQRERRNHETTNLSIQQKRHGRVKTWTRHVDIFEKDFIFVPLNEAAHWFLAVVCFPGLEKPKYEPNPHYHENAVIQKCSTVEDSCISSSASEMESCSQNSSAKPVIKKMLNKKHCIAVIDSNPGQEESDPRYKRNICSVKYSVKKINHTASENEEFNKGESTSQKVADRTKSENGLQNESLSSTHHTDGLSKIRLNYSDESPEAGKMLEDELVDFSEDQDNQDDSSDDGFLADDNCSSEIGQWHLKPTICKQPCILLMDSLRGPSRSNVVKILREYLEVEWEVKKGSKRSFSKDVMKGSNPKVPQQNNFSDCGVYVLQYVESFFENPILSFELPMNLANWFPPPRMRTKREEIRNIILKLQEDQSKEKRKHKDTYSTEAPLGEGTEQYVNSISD
# Caspase-3 = target: T5, Caspase-3 (Homo sapiens, UniProt P42574); experiment: inhibition of recombinant caspase-3 activity – biochemical, luminescence, set 2, selectivity assay for SENP protease inhibitor project, SAR follow-up (AID 588599); type: functional
# T5 sequence (P42574 whole entry): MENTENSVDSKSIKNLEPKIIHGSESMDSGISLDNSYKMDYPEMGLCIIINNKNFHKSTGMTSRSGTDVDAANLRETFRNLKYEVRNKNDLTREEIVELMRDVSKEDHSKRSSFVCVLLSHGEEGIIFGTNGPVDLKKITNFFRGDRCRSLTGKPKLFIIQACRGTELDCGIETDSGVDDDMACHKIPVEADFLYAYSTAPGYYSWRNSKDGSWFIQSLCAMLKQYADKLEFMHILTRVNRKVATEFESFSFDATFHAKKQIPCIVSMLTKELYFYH
# [11] = target: T6, Sentrin-specific protease 7 (Homo sapiens, UniProt Q9BQF6); experiment: inhibition of human SENP7 cleavage activity – biochemical, luminescence, set 2, SAR follow-up (AID 588600); type: functional
# T6 sequence (Q9BQF6 whole entry): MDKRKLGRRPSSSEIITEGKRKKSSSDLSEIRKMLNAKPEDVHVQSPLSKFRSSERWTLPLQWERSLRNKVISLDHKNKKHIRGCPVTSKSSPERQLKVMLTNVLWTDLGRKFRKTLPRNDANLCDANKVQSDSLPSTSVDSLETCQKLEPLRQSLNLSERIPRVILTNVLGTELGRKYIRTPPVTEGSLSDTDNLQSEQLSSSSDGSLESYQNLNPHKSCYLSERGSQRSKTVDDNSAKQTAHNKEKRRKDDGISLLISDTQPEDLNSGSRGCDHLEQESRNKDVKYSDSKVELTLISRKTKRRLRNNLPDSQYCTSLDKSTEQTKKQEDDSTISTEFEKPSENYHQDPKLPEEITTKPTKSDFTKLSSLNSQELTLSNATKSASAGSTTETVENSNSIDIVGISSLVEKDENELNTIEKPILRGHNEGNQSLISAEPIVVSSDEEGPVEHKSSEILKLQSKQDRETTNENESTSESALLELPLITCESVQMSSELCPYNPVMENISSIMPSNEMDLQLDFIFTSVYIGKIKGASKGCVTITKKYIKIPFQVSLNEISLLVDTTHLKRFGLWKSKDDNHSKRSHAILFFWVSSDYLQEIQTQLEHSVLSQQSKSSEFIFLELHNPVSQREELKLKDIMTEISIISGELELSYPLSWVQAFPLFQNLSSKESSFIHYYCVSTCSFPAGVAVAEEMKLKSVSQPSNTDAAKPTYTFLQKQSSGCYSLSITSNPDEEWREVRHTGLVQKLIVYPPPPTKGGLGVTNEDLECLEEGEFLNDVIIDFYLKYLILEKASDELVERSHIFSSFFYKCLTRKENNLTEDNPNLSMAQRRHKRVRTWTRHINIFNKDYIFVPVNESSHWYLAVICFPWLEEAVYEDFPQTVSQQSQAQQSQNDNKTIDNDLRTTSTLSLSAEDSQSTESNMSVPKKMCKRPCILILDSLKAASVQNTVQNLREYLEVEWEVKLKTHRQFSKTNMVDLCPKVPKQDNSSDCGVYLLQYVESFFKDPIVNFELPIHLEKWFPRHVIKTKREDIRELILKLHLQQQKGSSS
# Cysteine protease ATG4B = target: T7, Cysteine protease ATG4B (Homo sapiens, UniProt Q9Y4P1); experiment: autophagin-1 cysteine protease inhibition – biochemical, fluorescence, set 2, dose response (AID 588584); type: functional
# T7 sequence (Q9Y4P1 whole entry): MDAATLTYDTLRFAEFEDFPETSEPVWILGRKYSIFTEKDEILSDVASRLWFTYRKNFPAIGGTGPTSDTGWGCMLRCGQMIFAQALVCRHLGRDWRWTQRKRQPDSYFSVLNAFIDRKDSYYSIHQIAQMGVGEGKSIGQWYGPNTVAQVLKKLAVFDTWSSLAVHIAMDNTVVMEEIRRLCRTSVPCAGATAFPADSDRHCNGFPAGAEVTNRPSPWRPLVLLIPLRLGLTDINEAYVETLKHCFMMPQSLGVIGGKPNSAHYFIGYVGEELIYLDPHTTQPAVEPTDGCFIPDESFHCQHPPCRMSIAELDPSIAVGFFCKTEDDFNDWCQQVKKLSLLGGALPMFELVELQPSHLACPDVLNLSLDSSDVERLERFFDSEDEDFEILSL
# [12] = HEK-293T viability loss after treatment – luminescence, T-cell screen hits, cytotoxicity control for TCR NF-kB inhibitor project, dose response (AID 489026); type: functional, cell-based;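 note: cells exposed to compound about 14 hours before the viability readout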
# Phospholipase A2 = Phospholipase A2 (Homo sapiens, UniProt P04054); experiment: phospholipase A2 activity inhibition – biochemical, set 2, counter-screen for ATG4B inhibitor project, dose response (AID 588586); type: functional
# Phospholipase A2, sequence (P04054 whole entry): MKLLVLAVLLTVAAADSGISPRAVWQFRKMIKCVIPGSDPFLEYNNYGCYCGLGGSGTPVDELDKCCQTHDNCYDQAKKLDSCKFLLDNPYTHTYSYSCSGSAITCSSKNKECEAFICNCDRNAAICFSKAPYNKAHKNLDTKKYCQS
# Hexokinase-1, sequence (P19367 whole entry, the tested form may be a part): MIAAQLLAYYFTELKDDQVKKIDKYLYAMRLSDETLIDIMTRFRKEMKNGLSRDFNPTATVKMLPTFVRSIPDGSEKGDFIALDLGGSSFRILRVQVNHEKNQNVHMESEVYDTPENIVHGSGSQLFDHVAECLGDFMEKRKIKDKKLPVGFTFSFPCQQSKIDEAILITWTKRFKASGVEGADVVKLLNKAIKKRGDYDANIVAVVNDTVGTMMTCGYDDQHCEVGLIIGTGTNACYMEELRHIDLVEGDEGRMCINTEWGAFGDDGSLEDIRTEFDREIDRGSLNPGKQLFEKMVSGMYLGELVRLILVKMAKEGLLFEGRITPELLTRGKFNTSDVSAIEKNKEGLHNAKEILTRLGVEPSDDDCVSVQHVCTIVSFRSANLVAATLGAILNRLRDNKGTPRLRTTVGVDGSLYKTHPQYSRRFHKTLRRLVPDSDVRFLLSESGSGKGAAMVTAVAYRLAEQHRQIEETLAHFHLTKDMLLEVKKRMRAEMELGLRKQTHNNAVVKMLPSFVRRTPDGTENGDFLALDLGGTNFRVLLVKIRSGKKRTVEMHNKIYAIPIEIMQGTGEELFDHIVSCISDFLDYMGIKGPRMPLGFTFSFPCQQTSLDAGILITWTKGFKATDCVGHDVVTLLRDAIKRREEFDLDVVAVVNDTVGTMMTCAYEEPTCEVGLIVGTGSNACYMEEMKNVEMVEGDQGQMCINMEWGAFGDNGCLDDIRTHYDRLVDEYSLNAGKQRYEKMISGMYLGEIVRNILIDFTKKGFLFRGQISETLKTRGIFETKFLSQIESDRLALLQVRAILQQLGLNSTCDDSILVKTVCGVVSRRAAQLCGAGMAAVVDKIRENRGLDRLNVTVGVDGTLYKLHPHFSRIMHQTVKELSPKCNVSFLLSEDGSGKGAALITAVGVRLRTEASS
# Dual specificity protein kinase CLK1, sequence (P49759 whole entry): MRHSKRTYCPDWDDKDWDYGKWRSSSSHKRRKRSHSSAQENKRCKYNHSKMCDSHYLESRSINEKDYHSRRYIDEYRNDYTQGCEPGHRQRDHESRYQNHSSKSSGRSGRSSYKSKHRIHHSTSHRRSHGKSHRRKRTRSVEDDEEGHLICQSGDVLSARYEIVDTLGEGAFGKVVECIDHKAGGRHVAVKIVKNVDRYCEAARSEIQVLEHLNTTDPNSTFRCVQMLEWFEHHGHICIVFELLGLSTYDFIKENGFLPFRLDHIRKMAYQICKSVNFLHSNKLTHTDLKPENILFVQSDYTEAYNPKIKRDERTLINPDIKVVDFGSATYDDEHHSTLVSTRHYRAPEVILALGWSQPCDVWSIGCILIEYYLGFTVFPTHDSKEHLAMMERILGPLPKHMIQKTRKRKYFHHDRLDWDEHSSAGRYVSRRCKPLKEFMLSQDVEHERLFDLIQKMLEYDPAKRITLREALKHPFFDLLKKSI
# Hexokinase HKDC1, sequence (Q2TB90 whole entry, the tested form may be a part): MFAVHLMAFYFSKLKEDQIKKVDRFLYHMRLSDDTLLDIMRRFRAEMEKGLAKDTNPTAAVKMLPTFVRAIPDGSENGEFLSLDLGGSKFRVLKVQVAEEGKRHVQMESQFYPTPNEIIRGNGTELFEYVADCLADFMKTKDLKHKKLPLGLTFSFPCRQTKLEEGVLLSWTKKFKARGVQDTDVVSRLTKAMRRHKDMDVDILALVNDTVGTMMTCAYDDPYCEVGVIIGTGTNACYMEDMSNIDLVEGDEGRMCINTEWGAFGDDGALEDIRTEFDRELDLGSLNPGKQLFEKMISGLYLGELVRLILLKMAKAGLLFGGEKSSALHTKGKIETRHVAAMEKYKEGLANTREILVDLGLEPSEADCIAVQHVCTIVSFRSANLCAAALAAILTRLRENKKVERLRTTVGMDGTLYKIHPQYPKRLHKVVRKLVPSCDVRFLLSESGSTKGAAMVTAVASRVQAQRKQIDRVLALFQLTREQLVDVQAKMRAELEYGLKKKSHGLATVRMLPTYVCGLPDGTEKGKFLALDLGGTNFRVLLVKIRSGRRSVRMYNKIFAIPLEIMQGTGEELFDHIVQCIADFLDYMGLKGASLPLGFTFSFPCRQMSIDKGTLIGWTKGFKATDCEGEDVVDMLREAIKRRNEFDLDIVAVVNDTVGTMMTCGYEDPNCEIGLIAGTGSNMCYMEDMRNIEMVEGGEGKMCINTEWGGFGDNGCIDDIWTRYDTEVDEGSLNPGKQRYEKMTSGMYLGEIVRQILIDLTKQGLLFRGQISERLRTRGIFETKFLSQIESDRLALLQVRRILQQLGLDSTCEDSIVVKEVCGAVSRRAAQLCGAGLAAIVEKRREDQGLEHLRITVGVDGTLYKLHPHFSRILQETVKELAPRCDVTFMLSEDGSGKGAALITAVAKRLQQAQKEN
# Glucose-6-phosphate 1-dehydrogenase, sequence (P11413 whole entry): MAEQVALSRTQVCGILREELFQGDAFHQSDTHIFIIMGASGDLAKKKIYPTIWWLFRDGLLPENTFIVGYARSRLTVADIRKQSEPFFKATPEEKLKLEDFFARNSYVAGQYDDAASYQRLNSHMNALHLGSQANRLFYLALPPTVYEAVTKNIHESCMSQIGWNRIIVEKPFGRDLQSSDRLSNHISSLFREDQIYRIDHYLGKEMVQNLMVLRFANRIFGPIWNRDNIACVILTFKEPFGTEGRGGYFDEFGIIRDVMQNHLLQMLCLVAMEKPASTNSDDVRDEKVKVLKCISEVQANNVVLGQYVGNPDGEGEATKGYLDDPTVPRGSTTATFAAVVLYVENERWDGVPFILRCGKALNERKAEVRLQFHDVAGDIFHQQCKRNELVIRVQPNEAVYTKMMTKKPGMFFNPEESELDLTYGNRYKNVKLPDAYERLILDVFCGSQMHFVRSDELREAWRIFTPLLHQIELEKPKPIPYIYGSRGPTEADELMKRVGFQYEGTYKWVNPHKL
smiles,measurement,setting,value
Cc1nc(Nc2ccc(Cl)cc2Cl)sc1C(=O)Nc1ccccc1,AC50,Escherichia coli,56.1 µM (active)
same,AC50,[1],7.83 µM (active)
same,CC50,[2],> 40 µM (active)
Cc1ccc(CNc2ncnc3ccc(-c4ccoc4C)cc23)o1,AC50,[3],0.695 µM (active)
O=C1C(=Cc2cccc(O)c2O)SC(=S)N1CCCN1CCOCC1,IC50,[4],45.5 µM (active)
same,IC50,[5],> 80 µM (inactive)
same,CC50,[6],100 µM (active)
O=C(COC(=O)c1cccnc1O)Nc1ccc(N2CCCCC2)cc1,AC50,[7],1.03 µM (active)
same,IC50,[8],> 80 µM (inactive)
same,IC50,Jurkat,0.19 µM (active)
O=c1c2ccccc2nc(/C=C/c2ccncc2)n1Cc1ccccc1,IC50,Hexokinase HKDC1,> 80 µM (inactive)
same,IC50,Hexokinase-1,> 80 µM (inactive)
COc1ccc(N2CC(C(=O)N/N=C/c3c[nH]c4ccccc34)CC2=O)cc1 (stereo not given),IC50,[9],> 99 µM (inactive)
same,IC50,[10],> 99 µM (inactive)
same,IC50,Caspase-3,> 99 µM (inactive)
same,IC50,[11],> 99 µM (inactive)
CC1=Nc2ccccc2/C1=C\c1sc(Nc2ccc(C)cc2)nc1O,IC50,Cysteine protease ATG4B,30.6 µM (inactive)
same,AC50,[1],0.546 µM (active)
same,IC50,[12],45.8 µM (inactive)
same,IC50,Phospholipase A2,22.3 µM (inactive)
